# Experimental data from patent US12091425B2 (AMGEN INC., priority 2016, dated 2024).
# Key:
# [1] = molecular target: T1, Mcl-1/Bim interaction, recombinant human Mcl-1 (171-327) (Homo sapiens, UniProt Q07820); assay: Cell free Mcl-1: Bim Affinity Assay (Mcl-1 HTRF); type: binding
# T1 construct: made in house
# Outline: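 Read-out is time-resolved FRET after overnight incubation, using a biotin-labelled peptide from human Bim (51-76) as the binding partner; IC50 was derived from competition curves.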
# [2] = test system: OPM-2 human multiple myeloma cell line; assay: Cell Viability Assay (OPM-2 10 FBS); type: cell-based; conditions: Homo sapiens, OPM-2 cells, CellTiter-Glo
# Outline: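 Plated at 3000 cells/well in 10% FBS complete medium, the cells received a serial compound dilution series and incubated 16 h at 37 °C with 5% CO2. CellTiter-Glo was then added; IC50 values were fitted with a logistic 4-parameter model.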
# [3] = TR-FRET, 0.1 nM Mcl-1 (171-327), 0.05 nM biotin-Bim (51-76)
# T1 sequence (Q07820 171-327): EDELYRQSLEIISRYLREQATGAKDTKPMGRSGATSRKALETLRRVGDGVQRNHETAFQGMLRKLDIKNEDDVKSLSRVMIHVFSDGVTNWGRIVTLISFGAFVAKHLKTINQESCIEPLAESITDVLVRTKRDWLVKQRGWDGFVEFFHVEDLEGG
Structure (SMILES),"IC50 ([1]; cell free Mcl-1:Bim TR-FRET, recombinant human Mcl-1 (171-327))","IC50 ([2]; OPM-2, 16 h, 16 h)","IC50 [1, 3]","IC50 ([2]; OPM-2, 16 h, 16 h incubation)",IC50 ([2]; 16 h incubation)
"O=C1NS(=O)(=O)CCC/C=C/[C@@H](O)[C@@H]2CC[C@H]2CN2C[C@@]3(CCCc4cc(Cl)ccc43)COc3ccc1cc32 [Example 952, (1S,3′R,6′R,7′R,8′E)-6-chloro-7′-hydroxy-3,4-dihydro-2H,15′H-spiro[naphthalene-1,22′-[20]oxa[13]thia[1,14]diazatetracyclo[14.7.2.0^3,6.0^19,24]pentacosa [8,16,18,24]tetraen]-15′-one 13′,13′-dioxide]",–,–,1.28 nM,–,6380 nM
"CC[C@@H]1CC/C=C/[C@H](OCc2nccn2C)[C@@H]2CC[C@H]2CN2C[C@@]3(CCCc4cc(Cl)ccc43)COc3ccc(cc32)C(=O)NS1(=O)=O [Example 965, (1S,3′R,6′R,7′S,8′E,12′R)-6-chloro-12′-ethyl-7′-((1-methyl-1H-IMIDAZOL-2-yl)methoxy)-3,4-dihydro-2H,15′H-spiro[naphthalene-1,22′-[20]oxa[13]thia[1,14]diazatetracyclo[14.7.2.0^3,6.0^19,24]pentacosa [8,16,18,24]tetraen]-15′-one 13′,13′-dioxide]",–,–,0.403 nM,693 nM,–
"CC[C@@H]1CC/C=C/[C@H](OCc2cc(C)nn2C)[C@@H]2CC[C@H]2CN2C[C@@]3(CCCc4cc(Cl)ccc43)COc3ccc(cc32)C(=O)NS1(=O)=O [Example 967, (1S,3′R,6′R,7′S,8′E,12′R)-6-chloro-7′-((1,3-dimethyl-1H-pyrazol-5-yl)methoxy)-12′-ethyl-3,4-dihydro-2H,15′H-spiro[naphthalene-1,22′-[20]oxa[13]thia[1,14]diazatetracyclo[14.7.2.0^3,6.0^19,24]pentacosa [8,16,18,24]tetraen]-15′-one 13′,13′-dioxide]",–,–,1.06 nM,461 nM,–
"CC[C@@H]1CC/C=C/[C@H](OCc2ncccn2)[C@@H]2CC[C@H]2CN2C[C@@]3(CCCc4cc(Cl)ccc43)COc3ccc(cc32)C(=O)NS1(=O)=O [Example 977, (1S,3′R,6′R,7′S,8′E,12′R)-6-chloro-12′-ethyl-7′-(2-pyrimidinylmethoxy)-3,4-dihydro-2H,15′H-spiro[naphthalene-1,22′-[20]oxa[13]thia[1,14]diazatetracyclo[14.7.2.0^3,6.0^19,24]pentacosa [8,16,18,24]tetraen]-15′-one 13′,13′-dioxide]",–,–,0.329 nM,266 nM,–
"CC[C@@H]1CC/C=C/[C@H](OCc2ncco2)[C@@H]2CC[C@H]2CN2C[C@@]3(CCCc4cc(Cl)ccc43)COc3ccc(cc32)C(=O)NS1(=O)=O [Example 986, (1S,3′R,6′R,7′S,8′E,12′R)-6-chloro-12′-ethyl-7′-(1,3-oxazol-2-ylmethoxy)-3,4-dihydro-2H,15′H-spiro[naphthalene-1,22′-[20]oxa[13]thia[1,14]diazatetracyclo[14.7.2.0^3,6.0^19,24]pentacosa [8,16,18,24]tetraen]-15′-one 13′,13′-dioxide]",–,–,0.476 nM,270 nM,–
"CC[C@@H]1CC/C=C/[C@H](OCc2nnn(C)n2)[C@@H]2CC[C@H]2CN2C[C@@]3(CCCc4cc(Cl)ccc43)COc3ccc(cc32)C(=O)NS1(=O)=O [Example 987, (1S,3′R,6′R,7′S,8′E,12′R)-6-chloro-12′-ethyl-7′-((2-methyl-2H-tetrazol-5-yl)methoxy)-3,4-dihydro-2H,15′H-spiro[naphthalene-1,22′-[20]oxa[13]thia[1,14]diazatetracyclo[14.7.2.0^3,6.0^19,24]pentacosa [8,16,18,24]tetraen]-15′-one 13′,13′-dioxide]",–,–,0.616 nM,392 nM,–
"CC[C@@H]1CC/C=C/[C@H](OCc2nnnn2C)[C@@H]2CC[C@H]2CN2C[C@@]3(CCCc4cc(Cl)ccc43)COc3ccc(cc32)C(=O)NS1(=O)=O [Example 988, (1S,3′R,6′R,7′S,8′E,12′R)-6-chloro-12′-ethyl-7′-((1-methyl-1H-tetrazol-5-yl)methoxy)-3,4-dihydro-2H,15′H-spiro[naphthalene-1,22′-[20]oxa[13]thia[1,14]diazatetracyclo[14.7.2.0^3,6.0^19,24]pentacosa [8,16,18,24]tetraen]-15′-one 13′,13′-dioxide]",–,–,0.536 nM,1000 nM,–

# More lines, main results first:
"IC50 ([1]; cell free Mcl-1:Bim TR-FRET, recombinant human Mcl-1 (171-327))","IC50 ([2]; OPM-2, 16 h, 16 h)","IC50 [1, 3]","IC50 ([2]; OPM-2, 16 h, 16 h incubation)",Structure (SMILES),IC50 ([2]; 16 h incubation)
15.8 nM,11500 nM,–,–,"C=C1CCCC[C@@H](CC)S(=O)(=O)NC(=O)c2ccc3c(c2)N(C[C@@H]2CC[C@@H]12)C[C@@]1(CCCc2cc(Cl)ccc21)CO3 [Example 859, (1S,3′R,6′R,12′R)-6-chloro-12′-ethyl-7′-methylidene-3,4-dihydro-2H,15′H-spiro[naphthalene-1,22′-[20]oxa[13]thia[1,14]diazatetracyclo[14.7.2.0^3,6.0^19,24]pentacosa [16,18,24]trien]-15′-one 13′,13′-dioxide]",–
–,–,0.275 nM,211 nM,"C[C@@H]1CC/C=C/[C@H](OCc2ncccn2)[C@@H]2CC[C@H]2CN2C[C@@]3(CCCc4cc(Cl)ccc43)COc3ccc(cc32)C(=O)NS1(=O)=O [Example 956, (1S,3′R,6′R,7′S,8′E,12′R)-6-chloro-12′-methyl-7′-(2-pyrimidinylmethoxy)-3,4-dihydro-2H,15′H-spiro[naphthalene-1,22′-[20]oxa[13]thia[1,14]diazatetracyclo[14.7.2.0^3,6.0^19,24]pentacosa [8,16,18,24]tetraen]-15′-one 13′,13′-dioxide]",–
–,–,0.442 nM,308 nM,"C[C@@H]1CC/C=C/[C@H](OCc2nnn(C)n2)[C@@H]2CC[C@H]2CN2C[C@@]3(CCCc4cc(Cl)ccc43)COc3ccc(cc32)C(=O)NS1(=O)=O [Example 957, (1S,3′R,6′R,7′S,8′E,12′R)-6-chloro-12′-methyl-7′-((2-methyl-2H-tetrazol-5-yl)methoxy)-3,4-dihydro-2H,15′H-spiro[naphthalene-1,22′-[20]oxa[13]thia[1,14]diazatetracyclo[14.7.2.0^3,6.0^19,24]pentacosa [8,16,18,24]tetraen]-15′-one 13′,13′-dioxide]",–
–,–,0.253 nM,3890 nM,"C[C@@H]1CC/C=C/[C@H](OCc2nc[nH]n2)[C@@H]2CC[C@H]2CN2C[C@@]3(CCCc4cc(Cl)ccc43)COc3ccc(cc32)C(=O)NS1(=O)=O [Example 958, (1S,3′R,6′R,7′S,8′E,12′R)-6-chloro-12′-methyl-7′-(4H-1,2,4-triazol-3-ylmethoxy)-3,4-dihydro-2H,15′H-spiro[naphthalene-1,22′-[20]oxa[13]thia[1,14]diazatetracyclo[14.7.2.0^3,6.0^19,24]pentacosa [8,16,18,24]tetraen]-15′-one 13′,13′-dioxide]",–
–,–,0.349 nM,754 nM,"CC[C@@H]1CC/C=C/[C@H](OCc2nnc(C)o2)[C@@H]2CC[C@H]2CN2C[C@@]3(CCCc4cc(Cl)ccc43)COc3ccc(cc32)C(=O)NS1(=O)=O [Example 966, (1S,3′R,6′R,7′S,8′E,12′R)-6-chloro-12′-ethyl-7′-((5-methyl-1,3,4-oxadiazol-2-yl)methoxy)-3,4-dihydro-2H,15′H-spiro[naphthalene-1,22′-[20]oxa[13]thia[1,14]diazatetracyclo[14.7.2.0^3,6.0^19,24]pentacosa [8,16,18,24]tetraen]-15′-one 13′,13′-dioxide]",–
–,–,0.851 nM,330 nM,"CC[C@@H]1CC/C=C/[C@H](OCCS(=O)(=O)N(C)C)[C@@H]2CC[C@H]2CN2C[C@@]3(CCCc4cc(Cl)ccc43)COc3ccc(cc32)C(=O)NS1(=O)=O [Example 989, 2-(((1S,3′R,6′R,7′S,8′E,12′R)-6-chloro-12′-ethyl-13′,13′-dioxido-15′-oxo-3,4-dihydro-2H-spiro[naphthalene-1,22′-[20]oxa[13]thia[1,14]diazatetracyclo[14.7.2.0^3,6.0^19,24]pentacosa [8,16,18,24]tetraen]-7′-yl)oxy)-N,N-dimethylethanesulfonamide]",–
–,–,3.08 nM,2230 nM,"CC[C@@H]1CC/C=C/[C@H](OCc2nccs2)[C@@H]2CC[C@H]2CN2C[C@@]3(CCCc4cc(Cl)ccc43)COc3ccc(cc32)C(=O)NS1(=O)=O [Example 990, (1S,3′R,6′R,7′S,8′E,12′R)-6-chloro-12′-ethyl-7′-(1,3-thiazol-2-ylmethoxy)-3,4-dihydro-2H,15′H-spiro[naphthalene-1,22′-[20]oxa[13]thia[1,14]diazatetracyclo[14.7.2.0^3,6.0^19,24]pentacosa [8,16,18,24]tetraen]-15′-one 13′,13′-dioxide]",–
–,–,0.103 nM,2340 nM,"CC[C@@H]1CC/C=C/[C@H](OCC(=O)O)[C@@H]2CC[C@H]2CN2C[C@@]3(CCCc4cc(Cl)ccc43)COc3ccc(cc32)C(=O)NS1(=O)=O [Example 992, (((1S,3′R,6′R,7′S,8′E,12′R)-6-chloro-12′-ethyl-13′,13′-dioxido-15′-oxo-3,4-dihydro-2H-spiro[naphthalene-1,22′-[20]oxa[13]thia[1,14]diazatetracyclo[14.7.2.0^3,6.0^19,24]pentacosa [8,16,18,24]tetraen]-7′-yl)oxy)acetic Acid]",–
–,–,2.01 nM,373 nM,"CC[C@@H]1CCCC[C@H](OCC(=O)OC)[C@@H]2CC[C@H]2CN2C[C@@]3(CCCc4cc(Cl)ccc43)COc3ccc(cc32)C(=O)NS1(=O)=O [Example 993, methyl (((1S,3′R,6′R,7′S,12′R)-6-chloro-12′-ethyl-13′,13′-dioxido-15′-oxo-3,4-dihydro-2H-spiro[naphthalene-1,22′-[20]oxa[13]thia[1,14]diazatetracyclo[14.7.2.0^3,6.0^19,24]pentacosa [16,18,24]trien]-7′-yl)oxy)acetate]",–
